In patent US20250171452A1 (Viscient Bio, Inc., priority 2022, published 2025):
Where two headings read alike, the source gives them in different places.

Columns and labels:
IDO2 = IDO2 (Homo sapiens (Human), UniProt Q6ZQW0); assay: Cellular IDO2 assay, doxycycline and 5-methoxy-L-tryptophan medium, colorimetric; type: cell-based
[1] = target: Indoleamine 2,3-dioxygenase 1 (IDO1) (Homo sapiens (Human), UniProt P14902); assay: Cellular IDO1 assay: kynurenine production in IFN-γ-stimulated HeLa cells, colorimetric
Indoleamine 2,3-dioxygenase 1 (IDO1), sequence (P14902 whole entry): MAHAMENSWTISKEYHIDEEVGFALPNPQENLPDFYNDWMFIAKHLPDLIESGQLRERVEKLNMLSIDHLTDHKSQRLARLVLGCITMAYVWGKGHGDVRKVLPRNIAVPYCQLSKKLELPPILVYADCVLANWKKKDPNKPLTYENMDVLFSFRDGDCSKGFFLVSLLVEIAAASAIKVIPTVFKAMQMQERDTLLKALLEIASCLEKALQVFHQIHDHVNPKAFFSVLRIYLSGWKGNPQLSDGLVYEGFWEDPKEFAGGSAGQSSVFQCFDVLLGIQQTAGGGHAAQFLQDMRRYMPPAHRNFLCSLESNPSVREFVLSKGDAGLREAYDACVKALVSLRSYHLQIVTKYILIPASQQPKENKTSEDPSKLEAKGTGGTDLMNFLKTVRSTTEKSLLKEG

[2] = cellular level, 72 h incubation, signal at 480 nm

IDO2, sequence (Q6ZQW0 whole entry, species assumed): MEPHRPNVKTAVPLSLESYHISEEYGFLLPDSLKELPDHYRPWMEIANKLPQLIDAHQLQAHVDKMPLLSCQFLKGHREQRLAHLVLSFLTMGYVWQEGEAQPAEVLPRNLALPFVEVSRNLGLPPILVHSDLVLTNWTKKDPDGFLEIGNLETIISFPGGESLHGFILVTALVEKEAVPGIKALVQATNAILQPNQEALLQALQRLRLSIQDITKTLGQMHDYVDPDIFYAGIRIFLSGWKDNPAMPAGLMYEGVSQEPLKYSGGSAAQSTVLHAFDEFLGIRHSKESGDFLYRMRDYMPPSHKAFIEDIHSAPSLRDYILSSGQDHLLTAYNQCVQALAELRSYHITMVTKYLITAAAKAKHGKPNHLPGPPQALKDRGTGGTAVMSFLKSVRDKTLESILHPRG

SMILES	IC50 (IDO2; [2])	IC50 [1]	IC50 (IDO2)
NS(=O)(=O)NCCNC(=O)c1ccc2c(c1)C(=O)c1nc3cc(Cl)cc(Cl)c3c(=O)n1-2 [Compound 29, 1,3-Dichloro-6,12-dioxo-N-(2-(sulfamoylamino)ethyl)-6,12-dihydroindolo[2,1-b]quinazoline-8-carboxamide]	> 0.5 µM	> 0.5 µM	–
Cc1c(F)ccc2c(=O)n3c(nc12)C(=O)c1cc([N+](=O)[O-])ccc1-3 [Compound 30, 3-Fluoro-4-methyl-8-nitroindolo[2,1-b]quinazoline-6,12-dione]	< 0.05 µM	0.05 to 0.5 µM	–
N#Cc1ccc2c(c1)C(O)C1Nc3cc(F)ccc3C(=O)N21 (stereo not shown) [Compound 31, 3-Fluoro-6-hydroxy-12-oxo-5,5a,6,12-tetrahydroindolo[2,1-b]quinazoline-8-carbonitrile]	< 0.05 µM	0.05 to 0.5 µM	–
O=C1c2c(F)cc(F)cc2NC2C(O)c3cc([N+](=O)[O-])ccc3N12 (stereo not shown) [Compound 32, 1,3-Difluoro-6-hydroxy-8-nitro-5a,6-dihydroindolo[2,1-b]quinazolin-12(5H)-one]	0.05 to 0.5 µM	0.05 to 0.5 µM	–
O=C1c2cc(S(=O)(=O)Cc3ccccc3)ccc2-n2c1nc1cc(F)ccc1c2=O [Compound 33, 8-(Benzylsulfonyl)-3-fluoroindolo[2,1-b]quinazoline-6,12-dione]	< 0.05 µM	< 0.05 µM	–
O=c1c2c(F)cc(F)cc2nc2n1-c1ccc([N+](=O)[O-])cc1C2 [Compound 34, 1,3-Difluoro-8-nitroindolo[2,1-b]quinazolin-12(6H)-one]	0.05 to 0.5 µM	> 0.5 µM	–
O=C1c2cc([N+](=O)[O-])ccc2-n2c1nc1c(Br)c(F)ccc1c2=O [Compound 35]	< 0.05 µM	0.05 to 0.5 µM	–
O=C1c2cc([N+](=O)[O-])ccc2-n2c1nc1c(Cl)cccc1c2=O [Compound 36, 4-Chloro-8-nitroindolo[2,1-b]quinazoline-6,12-dione]	< 0.05 µM	0.05 to 0.5 µM	–
O=C1c2cc([N+](=O)[O-])ccc2-n2c1nc1cccc(F)c1c2=O [Compound 37, 1-Fluoro-8-nitroindolo[2,1-b]quinazoline-6,12-dione]	–	< 0.05 µM	< 0.05 µM
Cc1cccc2nc3n(c(=O)c12)-c1ccc([N+](=O)[O-])cc1C3=O [Compound 38, 1-Methyl-8-nitroindolo[2,1-b]quinazoline-6,12-dione]	< 0.05 µM	< 0.05 µM	–
O=c1c2c(Cl)cccc2[nH]c2cc3cc([N+](=O)[O-])ccc3n12 [Compound 39, 1-Chloro-8-nitroindolo[2,1-b]quinazolin-12(5H)-one]	< 0.05 µM	0.05 to 0.5 µM	–
Cc1ccc(F)c2c(=O)n3c(nc12)C(=O)c1cc([N+](=O)[O-])ccc1-3 [Compound 40]	0.05 to 0.5 µM	0.05 to 0.5 µM	–
O=C1c2cc([N+](=O)[O-])ccc2-n2c1nc1c(F)cccc1c2=O [Compound 41, 4-Fluoro-8-nitroindolo[2,1-b]quinazoline-6,12-dione]	< 0.05 µM	0.05 to 0.5 µM	–
Cc1cccc2c(=O)n3c(nc12)C(=O)c1cc([N+](=O)[O-])ccc1-3 [Compound 42, 4-Methyl-8-nitroindolo[2,1-b]quinazoline-6,12-dione]	< 0.05 µM	< 0.05 µM	–
O=C1c2cc([N+](=O)[O-])ccc2-n2c1nc1c(Br)cccc1c2=O [Compound 43, 4-Bromo-8-nitroindolo[2,1-b]quinazoline-6,12-dione]	< 0.05 µM	0.05 to 0.5 µM	–
O=C1c2cc(F)ccc2-n2c1nc1c(Br)cccc1c2=O [Compound 44, 4-Bromo-8-fluoroindolo[2,1-b]quinazoline-6,12-dione]	< 0.05 µM	0.05 to 0.5 µM	–
O=C1c2cc([N+](=O)[O-])ccc2-n2c1nc1c(Br)cc(F)cc1c2=O [Compound 45, 4-Bromo-2-fluoro-8-nitroindolo[2,1-b]quinazoline-6,12-dione]	0.05 to 0.5 µM	0.05 to 0.5 µM	–
N#Cc1ccc2c(c1)C(=O)c1nc3c(Br)cccc3c(=O)n1-2 [Compound 46, 4-bromo-6,12-dioxo-6,12-dihydroindolo[2,1-b]quinazoline-8-carbonitrile]	< 0.05 µM	0.05 to 0.5 µM	–
O=C1c2cc([N+](=O)[O-])ccc2-n2c1nc1c(Br)cc(Cl)cc1c2=O [Compound 47, 4-Bromo-2-chloro-8-nitroindolo[2,1-b]quinazoline-6,12-dione]	0.05 to 0.5 µM	> 0.5 µM	–
Cc1cc(C)c2nc3n(c(=O)c2c1)-c1ccc([N+](=O)[O-])cc1C3=O [Compound 48, 2,4-Dimethyl-8-nitroindolo[2,1-b]quinazoline-6,12-dione]	< 0.05 µM	< 0.05 µM	–
Cc1cc(F)cc2c(=O)n3c(nc12)C(=O)c1cc([N+](=O)[O-])ccc1-3 [Compound 49, 2-Fluoro-4-methyl-8-nitroindolo[2,1-b]quinazoline-6,12-dione]	< 0.05 µM	0.05 to 0.5 µM	–
O=C1c2cc([N+](=O)[O-])ccc2-n2c1nc1c(Br)c(Cl)ccc1c2=O [Compound 50, 4-Bromo-3-chloro-8-nitroindolo[2,1-b]quinazoline-6,12-dione]	0.05 to 0.5 µM	> 0.5 µM	–
O=C1c2cc([N+](=O)[O-])ccc2-n2c1nc1cnc(O)cc1c2=O [Compound 51, 3-Hydroxy-9-nitropyrido[3′,4′:4,5]pyrimido[1,2-a]indole-5,11-dione]	0.05 to 0.5 µM	> 0.5 µM	–
